# Measured values as given in patent US20220226484A1, “THERAPEUTIC PEPTIDES” (COHBAR, INC., priority 2019, published 2022).
# Positions of bridges follow the written chain, without caps; N, C: chain ends. Non-standard residues stand in square brackets, D forms with d. Primed or numbered codes have the meaning given here. Chains are numbered I, II in the order given. No end group written: not given here. PEG12′ = not defined here; Nle = CCCC[C@H](N)C(=O)O
# How the values were obtained:
# H4IIE Rat Hepatoma Cells = assay: Insulin-dependent effect on glucose production by cultured rat liver cells; assay type: cell-based; details: 24 hour; for Glucose Levels, MEAN % Control, +Insulin: peptide 10 μM + insulin 800 pM, percent of insulin (800 pM); for Glucose Levels, MEAN % Control, −Insulin: peptide 10 μM alone, percent of untreated control cells
# Experimental: The effect of the peptides on glucose production was assessed in the absence and presence of insulin using an assay of glucose levels in cultured cells such as rat hepatocytes. Peptides were initially prepared as 10 mM stock in DMSO and used at a final concentration of 10 μM (0.1% DMSO). Insulin (800 pM) was used as a partial inhibitor of glucose production. H4-IIE cells purchased from ATCC (Manassas, Va.) were seeded at 100,000 cells/well in standard medium (DMEM/high glucose+10% FBS+1× Glutamax+antibiotics) on 96-well plates and allowed to adhere overnight at 37° C. in a humidified atmosphere of 5% CO2/95% air. Approximately 24 h after seeding, the medium was removed, cells rinsed with glucose free DMEM, and Glucose Production Medium (glucose free DMEM+2 mM sodium pyruvate+10 mM sodium lactate) was added. The cultures were placed at 37° C. in a humidified atmosphere of 5% CO2/95% air overnight. The next morning, the medium was removed and fresh Glucose Production Medium containing compounds was added. Insulin at 800 pM was added to control wells. Peptides (10 μM) in the absence or presence of insulin (800 pM) were added to test wells. Cells in the presence of compounds were placed at 37° C. in a humidified atmosphere of 5% CO2/95% air overnight. After 24 hour incubation, conditioned medium from each well was transferred to a fresh 96-well plate for quantitation of glucose content. Quantitation of glucose levels was determined using an Amplex Red Glucose Assay kit (Abacm; Cambridge, Mass.) according to the manufacturer's instructions using a Cytation 3 plate reader at 570 nm (BioTek, Winooski, Vt.). Absorbance values were expressed as a percent of untreated control cells (maximum glucose production) for peptide alone samples or insulin (800 pM) for peptides in the presence of insulin (800 pM. Glucose levels for insulin (800 pM) treatment were ˜80-90% of the untreated control values. The results are reported in Table 15.
# 3T3-L1 Mouse Adipocytes = assay: Insulin-dependent effect on free fatty acid levels in cultured mouse adipocytes; assay type: cell-based; details: 3 hours; for Free Fatty Acid Levels, MEAN % ISO, +Insulin: peptide 10 μM + insulin 0.25 nM, percent of isoproterenol (0.1 nM)+insulin (0.25 nM); for Free Fatty Acid Levels, MEAN % ISO, −Insulin: peptide 10 μM alone, percent of isoproterenol (0.1 nM) treated control cells
# Experimental: The effect of the peptides on fatty acid metabolism was assessed in the absence and presence of insulin using an assay of free fatty acid levels in cultured cells such as mouse adipocytes. Peptides were initially prepared as 10 mM stock in DMSO and used at a final concentration of 10 μM (0.1% DMSO). […] Insulin (0.25 nM) was used as a partial inhibitor and insulin (10 nM) was used as a potent inhibitor of isoproterenol stimulated fatty acid production. Mouse 3T3-L1 cells purchased from ZenBio (Research Triangle Park, N.C.) were seeded at 3,000 cells per well on 96-well plates in Pre-Adipocyte Medium (Zen-Bio) and grown to confluence at 37° C. in a humidified atmosphere of 5% CO2/95% air. Two days after confluence, cells were placed in Adipocyte Differentiation Medium (Zen-Bio) and cultured for three additional days at 37° C. in a humidified atmosphere of 5% CO2/95% air. The culture medium was then partially replaced with Adipocyte Maintenance Medium (Zen-Bio) and the cells maintained at 37° C. in a humidified atmosphere of 5% CO2/95% air with partial medium replacement every other day. At 12 day of differentiation, 96-well cultures were transferred to Adipocyte Maintenance Medium without insulin and placed at 37° C. in a humidified atmosphere of 5% CO2/95% air for two days. Following this incubation period, the medium was removed from 14 day differentiated cultures and replaced with Assay Buffer (Zen-Bio) containing peptides (10 μM), insulin (0.25 nM or 10 nM), isoproterenol (0.1 nM) as appropriate. […] isoproterenol was added to all wells except untreated controls. Insulin at 0.1 nM and 10 nM was added to control wells. Peptides (10 μM) in the absence or presence of insulin (0.25 nM) were added to test wells. Cells in the presence of compounds were placed at 37° C. in a humidified atmosphere of 5% CO2/95% air for 3 hours. At the end of the final 3 h incubation, conditioned assay buffer was removed from each well and place in a fresh 96-well plate for quantitation of free fatty acid content. Free fatty acid concentrations in the assay buffer samples were determined using a Free Fatty Acid Assay kit (Zen-Bio) according to the manufacturer's instructions using a Cytation 3 plate reader at 540 nm (BioTek, Winooski, VD. Absorbance values were corrected for untreated background and expressed as a percent of isoproterenol (0.1 nM) treated control cells for peptides alone or isoproterenol (0.1 nM)+insulin (0.25 nM) for peptides in presence of insulin (0.25 nM). Treatment with isoproterenol […] alone was used as the free fatty acid level stimulatory control. The relative standard deviation of the isoproterenol control was <10%. […] Free fatty acid levels for insulin (10 nM) treatment were <5% of the isoproterenol control value. Free fatty acid levels for insulin (0.25 nM) treatment were 60-80% of the isoproterenol control value.
substance,measurement,setting,value
MRVIRMCLGVGLLGDLAG [SEQ ID NO: 2],"Glucose Levels, MEAN % Control, +Insulin",H4IIE Rat Hepatoma Cells,79.7%
same,"Glucose Levels, MEAN % Control, −Insulin",H4IIE Rat Hepatoma Cells,121%
same,"Free Fatty Acid Levels, MEAN % ISO, +Insulin",3T3-L1 Mouse Adipocytes,60.5%
same,"Free Fatty Acid Levels, MEAN % ISO, −Insulin",3T3-L1 Mouse Adipocytes,98.8%
R(dA)IR(Nle)SLNVGLLGEL(dA) (R[dA]IR[Nle]SLNVGLLGEL[dA]) [SEQ ID NO: 15],"Glucose Levels, MEAN % Control, +Insulin",H4IIE Rat Hepatoma Cells,95.2%
same,"Glucose Levels, MEAN % Control, −Insulin",H4IIE Rat Hepatoma Cells,94.3%
same,"Free Fatty Acid Levels, MEAN % ISO, +Insulin",3T3-L1 Mouse Adipocytes,112.6%
same,"Free Fatty Acid Levels, MEAN % ISO, −Insulin",3T3-L1 Mouse Adipocytes,97.6%
RVIR(Nle)CLNVGLLGEL(dA)G (RVIR[Nle]CLNVGLLGEL[dA]G) [SEQ ID NO: 6],"Glucose Levels, MEAN % Control, +Insulin",H4IIE Rat Hepatoma Cells,82.5%
same,"Glucose Levels, MEAN % Control, −Insulin",H4IIE Rat Hepatoma Cells,109%
same,"Free Fatty Acid Levels, MEAN % ISO, +Insulin",3T3-L1 Mouse Adipocytes,66.9%
same,"Free Fatty Acid Levels, MEAN % ISO, −Insulin",3T3-L1 Mouse Adipocytes,93.6%
RVIR(Nle)SLNVGLEGEL(dA) (RVIR[Nle]SLNVGLEGEL[dA]) [SEQ ID NO: 14],"Glucose Levels, MEAN % Control, +Insulin",H4IIE Rat Hepatoma Cells,97.8%
same,"Glucose Levels, MEAN % Control, −Insulin",H4IIE Rat Hepatoma Cells,104%
same,"Free Fatty Acid Levels, MEAN % ISO, +Insulin",3T3-L1 Mouse Adipocytes,71.9%
same,"Free Fatty Acid Levels, MEAN % ISO, −Insulin",3T3-L1 Mouse Adipocytes,89.9%
RVIR(Nle)SLNVGLLGEL(dA)G (RVIR[Nle]SLNVGLLGEL[dA]G) [SEQ ID NO: 8],"Glucose Levels, MEAN % Control, +Insulin",H4IIE Rat Hepatoma Cells,63.5%
same,"Glucose Levels, MEAN % Control, −Insulin",H4IIE Rat Hepatoma Cells,105%
same,"Free Fatty Acid Levels, MEAN % ISO, +Insulin",3T3-L1 Mouse Adipocytes,74.9%
same,"Free Fatty Acid Levels, MEAN % ISO, −Insulin",3T3-L1 Mouse Adipocytes,69.3%
RVIRMCLGVGLLGDL(dA)G (RVIRMCLGVGLLGDL[dA]G) [SEQ ID NO: 4],"Glucose Levels, MEAN % Control, +Insulin",H4IIE Rat Hepatoma Cells,54.3%
same,"Glucose Levels, MEAN % Control, −Insulin",H4IIE Rat Hepatoma Cells,119%
same,"Free Fatty Acid Levels, MEAN % ISO, +Insulin",3T3-L1 Mouse Adipocytes,36.6%
same,"Free Fatty Acid Levels, MEAN % ISO, −Insulin",3T3-L1 Mouse Adipocytes,92.9%
RVIRMCLGVGLLGDLAG (disulfide I:6-II:6) [SEQ ID NO: 26],"Glucose Levels, MEAN % Control, +Insulin",H4IIE Rat Hepatoma Cells,21%
same,"Glucose Levels, MEAN % Control, −Insulin",H4IIE Rat Hepatoma Cells,114%
same,"Free Fatty Acid Levels, MEAN % ISO, +Insulin",3T3-L1 Mouse Adipocytes,33.4%
same,"Free Fatty Acid Levels, MEAN % ISO, −Insulin",3T3-L1 Mouse Adipocytes,93.5%
RVIRMCLGVGLLGDLAG [SEQ ID NO: 3],"Glucose Levels, MEAN % Control, +Insulin",H4IIE Rat Hepatoma Cells,39.9%
same,"Glucose Levels, MEAN % Control, −Insulin",H4IIE Rat Hepatoma Cells,121%
same,"Free Fatty Acid Levels, MEAN % ISO, +Insulin",3T3-L1 Mouse Adipocytes,37.1%
same,"Free Fatty Acid Levels, MEAN % ISO, −Insulin",3T3-L1 Mouse Adipocytes,98.0%
RVIRMCLGVGLLGDLAGK{PEG12} (RVIRMCLGVGLLGDLAGK(PEG12′)) [SEQ ID NO: 17],"Glucose Levels, MEAN % Control, +Insulin",H4IIE Rat Hepatoma Cells,18.8%
same,"Glucose Levels, MEAN % Control, −Insulin",H4IIE Rat Hepatoma Cells,105%
same,"Free Fatty Acid Levels, MEAN % ISO, +Insulin",3T3-L1 Mouse Adipocytes,35.9%
same,"Free Fatty Acid Levels, MEAN % ISO, −Insulin",3T3-L1 Mouse Adipocytes,102%
RVIRMCLGVGLLGDLAGK{PEG12} (chain 1 RVIRMCLGVGLLGDLAGK(PEG12′); chain 2 RVIRMCLGVGLLGDLAGK(PEG12′); disulfide I:6-II:6) [SEQ ID NO: 28],"Glucose Levels, MEAN % Control, +Insulin",H4IIE Rat Hepatoma Cells,23.9%
same,"Glucose Levels, MEAN % Control, −Insulin",H4IIE Rat Hepatoma Cells,92.0%
same,"Free Fatty Acid Levels, MEAN % ISO, +Insulin",3T3-L1 Mouse Adipocytes,33.4%
same,"Free Fatty Acid Levels, MEAN % ISO, −Insulin",3T3-L1 Mouse Adipocytes,80.7%
RVIRMCLNNGLLGEL(dA)G (RVIRMCLNNGLLGEL[dA]G) [SEQ ID NO: 9],"Glucose Levels, MEAN % Control, +Insulin",H4IIE Rat Hepatoma Cells,19.1%
same,"Glucose Levels, MEAN % Control, −Insulin",H4IIE Rat Hepatoma Cells,103%
same,"Free Fatty Acid Levels, MEAN % ISO, +Insulin",3T3-L1 Mouse Adipocytes,41.0%
same,"Free Fatty Acid Levels, MEAN % ISO, −Insulin",3T3-L1 Mouse Adipocytes,95.2%
RVIRMCLNNGLNGEL(dA)E (RVIRMCLNNGLNGEL[dA]E) [SEQ ID NO: 23],"Glucose Levels, MEAN % Control, +Insulin",H4IIE Rat Hepatoma Cells,3.1%
same,"Glucose Levels, MEAN % Control, −Insulin",H4IIE Rat Hepatoma Cells,36%
same,"Free Fatty Acid Levels, MEAN % ISO, +Insulin",3T3-L1 Mouse Adipocytes,43.9%
same,"Free Fatty Acid Levels, MEAN % ISO, −Insulin",3T3-L1 Mouse Adipocytes,99.4%
RVIRMCLNVGLLGEL(dA)E (RVIRMCLNVGLLGEL[dA]E) [SEQ ID NO: 12],"Glucose Levels, MEAN % Control, +Insulin",H4IIE Rat Hepatoma Cells,57.8%
same,"Glucose Levels, MEAN % Control, −Insulin",H4IIE Rat Hepatoma Cells,107%
same,"Free Fatty Acid Levels, MEAN % ISO, +Insulin",3T3-L1 Mouse Adipocytes,41.2%
same,"Free Fatty Acid Levels, MEAN % ISO, −Insulin",3T3-L1 Mouse Adipocytes,92.8%
RVIRMCLNVGLLGEL(dA)G [SEQ ID NO: 5] (RVIRMCLNVGLLGEL[dA]G),"Glucose Levels, MEAN % Control, +Insulin",H4IIE Rat Hepatoma Cells; listed as 5,54.5%
same,"Glucose Levels, MEAN % Control, −Insulin",H4IIE Rat Hepatoma Cells; listed as 5,117%
same,"Free Fatty Acid Levels, MEAN % ISO, +Insulin",3T3-L1 Mouse Adipocytes; listed as 5,37.0%
same,"Free Fatty Acid Levels, MEAN % ISO, −Insulin",3T3-L1 Mouse Adipocytes; listed as 5,94.3%
RVIRMCLNVGLNGEL(dA)G (RVIRMCLNVGLNGEL[dA]G) [SEQ ID NO: 11],"Glucose Levels, MEAN % Control, +Insulin",H4IIE Rat Hepatoma Cells,32.7%
same,"Glucose Levels, MEAN % Control, −Insulin",H4IIE Rat Hepatoma Cells,105%
same,"Free Fatty Acid Levels, MEAN % ISO, +Insulin",3T3-L1 Mouse Adipocytes,44.0%
same,"Free Fatty Acid Levels, MEAN % ISO, −Insulin",3T3-L1 Mouse Adipocytes,65.5%
RVIRMCLNVGNLGEL(dA)G (RVIRMCLNVGNLGEL[dA]G) [SEQ ID NO: 10],"Glucose Levels, MEAN % Control, +Insulin",H4IIE Rat Hepatoma Cells,38%
same,"Glucose Levels, MEAN % Control, −Insulin",H4IIE Rat Hepatoma Cells,101%
same,"Free Fatty Acid Levels, MEAN % ISO, +Insulin",3T3-L1 Mouse Adipocytes,63.2%
same,"Free Fatty Acid Levels, MEAN % ISO, −Insulin",3T3-L1 Mouse Adipocytes,90.7%
RVIRMSLNVGLEGEL(dA) (RVIRMSLNVGLEGEL[dA]) [SEQ ID NO: 13],"Glucose Levels, MEAN % Control, +Insulin",H4IIE Rat Hepatoma Cells,46.8%
same,"Glucose Levels, MEAN % Control, −Insulin",H4IIE Rat Hepatoma Cells,71.4%
same,"Free Fatty Acid Levels, MEAN % ISO, +Insulin",3T3-L1 Mouse Adipocytes,78.4%
same,"Free Fatty Acid Levels, MEAN % ISO, −Insulin",3T3-L1 Mouse Adipocytes,89.5%
RVIRMSLNVGLLGEL(dA)G (RVIRMSLNVGLLGEL[dA]G) [SEQ ID NO: 7],"Glucose Levels, MEAN % Control, +Insulin",H4IIE Rat Hepatoma Cells,74.4%
same,"Glucose Levels, MEAN % Control, −Insulin",H4IIE Rat Hepatoma Cells,89.2%
same,"Free Fatty Acid Levels, MEAN % ISO, +Insulin",3T3-L1 Mouse Adipocytes,74.5%
same,"Free Fatty Acid Levels, MEAN % ISO, −Insulin",3T3-L1 Mouse Adipocytes,91.1%
